Read-outs that look alike come from different tables or passages of the source.
Legend:
[1] = test system: Mitochondrial Membrane Potential; experiment: cells; conditions: for Specificity ratio (SRbaseline) SRMMP: against baseline cytotoxicity; for Specificity ratio (SRcytotoxicity) SRMMP: against experimental cytotoxicity; for Relative effect potency REPMMP: relative to BPA; for SR (MMP inhibition): specificity ratio; for EC10, linear / logEC10: MMP bioassay, dosing range all; for EC10, linear: linear model; for logEC10: log-logistic model; for log(1/EC10) MMP: input of the ToxPi score, values up to 1.00
Source text: All bioassay media components and the ERα-UAS-bla GripTite and PPARγ-UAS-bla cells were obtained from Thermo Fisher Scientific (Waltham, MA, USA). AREc32 reporter gene cells based on MCF7 were provided by C. Roland Wolf (Cancer Research UK); AhR CALUX cells (H4L7.5c2 derived from H4IIe) were provided by Michael Denison (UC Davis, USA); and SH-SY5Y cells were purchased from Sigma-Aldrich.
(§1) Cell culture conditions and bioassay protocols including response detection are provided in Text S2.1–2.4 and Table S3. − Cell viability was determined from cell confluency using an IncuCyte S3 Live-Cell Analysis System (Sartorius AG, Essen, Germany) before and after exposure, except for SH-SY5Y cells (live–dead staining with Nuclear Green LcS1 and propidium iodide, Abcam, UK). For metabolic activation experiments, cell viability was assessed using the ToxBLAzer DualScreen Kit (Thermo Fisher Scientific) to capture the remaining toxicity in ERα-UAS-bla GripTite after treatment with the aCYP catalyst (details in Text S2.4).
For ARE, the concentration that triggered an induction ratio of 1.5 (ECIR1.5) was used as the benchmark value, as detailed in Text S2.5. IC10 values also served as a threshold for data analysis in all assays; only concentrations below IC10 were considered when deriving EC10 or ECIR1.5. […]
S2: Cell culture and bioassays
S2.1: Cell Culturing Conditions
All suppliers and sources are given in detail in SI-Excel S3. The bioassay media for the different assays were prepared as follows: Assay medium for ER alpha-UAS-bla GripTite (ERα) and […]
2% charcoal-stripped FBS, and 100 U/mL penicillin-streptomycin. MitoOxTox and AhR assay medium was comprised of 90% DMEM with GlutaMAX, supplemented with 10% FBS, and 100 U/mL penicillin-streptomycin. […]
(§2) S2.2: Cell Seeding and Incubation. For all bioassays, cell suspensions in the respective assay medium were dispensed into each well of 384-well plates using a MultiFlo Dispenser (Biotek, (now Agilent), Winooski, VT, U.S.). After seeding, the plates were incubated at 37° C and 5% CO₂ for […]. The final cell densities and plate types were as follows: Black poly-D-lysine […]
(§3) 6500 cells/well, ERα: 5000 cells/well. White 384-well plates with a clear bottom (Product No.
(§4) NYC, U.S.) for AhR: 3250 cells/well. Black Collagen I coated plates were used (Product No.
(§5) S2.3: Chemical Dosing and Assay Analysis Procedures. The dosing procedure and high-throughput assay workflow have been described in detail before. 9 The dosing concentrations […]
Stock solutions were then either

[2] = test system: HEK293H, HEK293T, H4IIe, MCF7 and SH-SY5Y cells; conditions: for cytotoxicity,median REPBPA,IC10: median IC10 relative to BPA; for IC10,Median (M): median cytotoxicity of all cell lines; for IC10, median: median cytotoxicity over all cell lines
Procedure: as §1
For ARE, the concentration that triggered an induction ratio of 1.5 (ECIR1.5) was used as the benchmark value, as detailed in Text S2.5. IC10 values also served as a threshold for data analysis in all assays; only concentrations below IC10 were considered when deriving EC10 or ECIR1.5.
TR indicates whether the cytotoxicity is triggered by specific toxicity mechanisms (TR ≥ 10) or not (0.1< TR< 10). 3 TR=IC10,baseline/IC10 We measured the cytotoxicity of BPA and its alternatives in HEK293H (PPARγ), HEK293T (ERα), H4IIe (AhR CALUX), MCF7 (ARE/MMP), and differentiated SH-SY5Y cells (Table S6). […]
(§6) medium, supplemented with 2% B-27 Supplement and 2 mM GlutaMAX Supplement. SH - SY5Y cells were differentiated with 10 µM all-trans retinoic acid prior to the assay.
as §2, §3, §4, §5
(§7) Stock solutions were then either added directly to the respective cell culture medium or evaporated under nitrogen, followed by replenishment with fresh medium. The final solvent content in each well was kept below 1% for methanol, 0% for acetonitrile.
(§8) Dosing plates were prepared as 11 -step serial dilutions using a Hamilton Microlab Star robotic system (Hamilton, Bonaduz, Switzerland), and chemicals were dosed in duplicates by transferring 10 μL twice from the dosing plates to the cell plates . After quantifying cell confluency as described in S2. 4., the exposed cells were incubated at 37° C and 5% CO₂ for an additional 24 h. All chemicals were tested in all assays with at least three independent […]
(§9) S2.4: Cell Viability Measurement s and bioanalytical protocols . The confluency as a measure of cell viability was determined with an IncuCyte S3 Live -Cell Analysis System (Sartorius AG, Essen, Germany). With this method the confluency of cells in a microscopy image are normalized to control wells without cells and compared before and after 24 hours of exposure.
(§10) This method has been described previously 13. Cell viability of SH-SY5Y cells was measured […]
(§11) propidium iodide (PI, Abcam, Cambridge, U.K.).14 Nuclear Green LCS1 is a membrane-permeable dye that stains the nuclei of all cells, whereas PI only enters cells with compromised membrane integrity (non-viable cells). After staining, live cells show green nuclei without red fluorescence, while dead cells display both green and red nuclear fluorescence due to PI […]
intercalation. Cell viability was calculated as the proportion of green-only nuclei relative to the […]
For experiments with the preceding aCYP activation, ERα cell viability was additionally calculated from the readout of the ToxBLAzer reagent. The ToxBLAzer assay was conducted following the manufacturer's instructions (Thermo Fisher, Waltham, MA, U.S.).13 Fluorescence

SH-SY5Y cells = conditions: for IC10, linear / logIC10 / IC10, linear transformed: NOI bioassay cytotoxicity, dosing range all; for IC10, linear: linear model; for logIC10: log-logistic model; for Toxic ratio (TR) TRNOI: against baseline cytotoxicity; for IC10, SH-S5Y5, NOI: cytotoxicity, NOI assay cells
Procedure: as §1, with “S2.4). […]” for “S2.4).”
We measured the cytotoxicity of BPA and its alternatives in HEK293H (PPARγ), HEK293T (ERα), H4IIe (AhR CALUX), MCF7 (ARE/MMP), and differentiated SH-SY5Y cells (Table S6). […]
as §6
S2.2: Cell Seeding and Incubation. For all bioassays, cell suspensions in the respective assay medium were dispensed into each well of 384-well plates using a MultiFlo Dispenser (Biotek, (now Agilent), Winooski, VT, U.S.). After seeding, the plates were incubated at 37° C and 5% […]
as §4, §5, §7, §8, §9, §10, §11
intercalation. […]

[3] = Arec32, read-out: EC10, MMP (M)
[4] = Arec32, read-out: EC10, linear transformed

| SMILES | EC10 ([1]; Arec32, read-out: EC10, MMP) [M] | EC10 [1, 3] [M] | EC10 ([1]; Arec32, read-out: EC10, linear) [M] | EC10 [1, 4] [M] | EC10 ([1]; Arec32, read-out: logEC10) [M] | Specificity ratio (SRbaseline) SRMMP [1] | Specificity ratio (SRcytotoxicity) SRMMP [1] | Relative effect potency REPMMP [1] | SR (MMP inhibition) [1] | cytotoxicity,median REPBPA,IC10 [2] | IC10,Median (M) [2] | IC10, median [2] [µM] | IC10, linear (SH-SY5Y cells) | logIC10 (SH-SY5Y cells) | EC10, linear [1] | logEC10 [1] | IC10, linear transformed (SH-SY5Y cells) | Toxic ratio (TR) TRNOI (SH-SY5Y cells) | IC10, SH-S5Y5, NOI (SH-SY5Y cells) [µM] | log(1/EC10) MMP [1] |
| --- | --- | --- | --- | --- | --- | --- | --- | --- | --- | --- | --- | --- | --- | --- | --- | --- | --- | --- | --- | --- |
| O=S(=O)(c1ccc(O)cc1)c1ccc(OCc2ccccc2)cc1 [BPS-MPE, 4-[4-(benzyloxy)benzenesulfonyl]phenol] | 5.59e-06 | 5.59e-06 | 3.72e-06 | 5.91e-06 | 5.62e-06 | 6.33 | 21.99 | 5.01 | 22 | 0.62 | 1.12 × 10^–4 M | 112 | no cytotoxicity | no cytotoxicity |  |  |  |  |  |  |
| CC(C)(c1cc(Cl)c(O)c(Cl)c1)c1cc(Cl)c(O)c(Cl)c1 [TCBPA, 2,2',6,6'-Tetrachlorobisphenol A] | 1.48e-05 | 1.48e-05 | 1.15e-05 | 1.6e-05 | 1.48e-05 |  |  |  |  | 0.89 | 7.84 × 10^–5 M | 78.4 | 3.70E-08 | no cytotoxicity |  |  |  |  |  |  |
| CC(C)(c1ccc(OCC2CO2)cc1)c1ccc(OCC2CO2)cc1 (stereo not shown) [BADGE, Bisphenol A diglycidyl ether] |  |  |  | 9.1e-05 |  |  |  |  |  | 1.82 | 3.85 × 10^–5 M | 38.5 | 5.39E-05 | -4.24 | no effect | no effect | 5.73E-05 | 0.32 | 57.3 |  |
| Cc1ccc(S(=O)(=O)NC(=O)Nc2ccc(Cc3ccc(NC(=O)NS(=O)(=O)c4ccc(C)cc4)cc3)cc2)cc1 [BTUM, 4,4'-Bis(p-tolylsulfonylureido)diphenylmethane] |  |  |  |  |  |  |  |  |  | 2.26 | 3.10 × 10^–5 M | 31 | no cytotoxicity | no cytotoxicity | no effect | no effect |  |  |  |  |
| C=CCOc1ccc(S(=O)(=O)c2ccc(O)cc2)cc1 [BPS-MAE, 4-[[4-(Allyloxy)phenyl]sulfonyl]phenol] | 7.85e-05 | 7.85e-05 | 5.59e-05 | 8.31e-05 | 7.76e-05 |  |  |  |  | 0.37 | 1.90 × 10^–4 M | 190 | no cytotoxicity | -3.87 |  |  | 1.36E-04 |  | 136 |  |
| CC(C)(c1ccc(O)c(-c2ccccc2)c1)c1ccc(O)c(-c2ccccc2)c1 [BPPH, 2,2-Bis(2-hydroxy-5-biphenylyl)propane] | 1.96e-06 | 1.96e-06 |  | 1.94e-06 | 1.95e-06 | 2.08 | 3.95 | 14.27 |  | 8.72 | 8.02 × 10^–6 M | 8.02 | no cytotoxicity | -4.64 | no effect |  | 2.31E-05 | 0.08 | 23.1 | 1.00 |
| Oc1ccc(Sc2ccc(O)cc2)cc1 [BPT, 4,4'-Thiodiphenol] | 1.83e-05 | 1.83e-05 |  | 1.82e-05 | 1.82e-05 |  |  |  | > 10 | 0.74 | 9.51 × 10^–5 M | 95.1 | 1.40E-04 | no cytotoxicity | no effect |  |  |  | 140 |  |
| Oc1ccc(C2(c3ccc(O)cc3)CCCCC2)cc1 [BPZ, 1,1'-Bis(4-hydroxyphenyl)cyclohexane] | 2.21e-05 | 2.21e-05 | 1.31e-05 | 2.39e-05 | 2.19e-05 |  |  |  |  | 1.33 | 5.28 × 10^–5 M | 52.8 | 7.12E-05 | -4.10 |  |  | 7.89E-05 |  | 78.9 |  |
| O=S(=O)(c1ccc(O)cc1)c1ccc(O)cc1 [BPS, 4,4'-Sulfonyldiphenol] | 0.000117 | 0.000117 | 7.55e-05 | 0.000118 | 0.000117 |  |  |  |  |  | 5.61 × 10^–4 M | 561 | 1.85E-04 | -3.71 |  |  |  |  | 195 |  |
| Cc1ccc(S(=O)(=O)NC(=O)Nc2cccc(OS(=O)(=O)c3ccc(C)cc3)c2)cc1 [Pergafast, N-(p-toluenesulfonyl)-N'-(3-(p-toluenesulfonyloxy)phenyl)urea] |  |  |  |  |  |  |  |  |  | 3.67 | 1.91 × 10^–5 M | 19.1 | 4.94E-05 | no cytotoxicity | no effect | no effect |  | 2.23 | 49.4 | 0.92 |

Source: paper PMC12392461, “Beyond Estrogenicity: A Comparative Assessment of Bisphenol A and Its Alternatives in In Vitro Assays Questions Safety of Replacements” (Environmental Science & Technology, 2025)
